The results in this text go back to patent publication US20190374533A1, “COMPOUNDS AND METHODS FOR INHIBITING NHE-MEDIATED ANTIPORT IN THE TREATMENT OF DISORDERS ASSOCIATED WITH FLUID RETENTION OR SALT OVERLOAD AND GASTROINTESTINAL TRACT DISORDERS” (Ardelyx, Inc., priority 2008, published 2019).

The nature of data set [1]: Determination of compound Cmax and AUC. Format: in vivo. Conditions: rat; Sprague-Dawley rats, oral gavage, serum 0.5-4 h; actual oral dose (mg/kg) given. The method, then:
Sprague-Dawley rats were orally gavaged with test article (2.5 mg/kg) and serum was collected at 0.5, 1, 2 and 4 h. Serum samples were treated with acetonitrile, precipitated proteins removed by centrifugation and supernatants analyzed by LC/MS/MS and compared against a standard curve to determine compound concentration. All compounds were orally dosed at the dosage shown, and pharmacokinetic parameters determined as described in the text.

A further data set has as its target T1, rat NHE-3 (Rattus norvegicus, UniProt P26433).
T1 construct: expressed in transfected cells; host or cells: Opossum kidney (OK) cells (ATCC), electroporated
Kind of data set: Cell-based assay of NHE-3 activity (Pharmacological Test Example 1). Conditions: for IC50: read-out: rat NHE-3 Average pIC50 (converted). The method, then: Rat NHE-3-mediated Na^+-dependent H^+ antiport was measured using a modification of the pH sensitive dye method originally reported by Tsien (Proc. Natl. Acad. Sci. USA. (1984) 81(23): 7436-7440). Opossum kidney (OK) cells were obtained from the ATCC and propagated per their instructions. The rat NHE-3 gene was introduced into OK cells via electroporation, seeded into 96 well plates and grown overnight. Medium was aspirated from the wells, cells were washed twice with NaCl-HEPES buffer (100 mM NaCl, 50 mM HEPES, 10 mM glucose, 5 mM KCl, 2 mM CaCl2, 1 mM MgCl2, pH 7.4), then incubated for 30 min at room temperature with NH4Cl-HEPES buffer (20 mM NH4Cl, 80 mM NaCl, 50 mM HEPES, 5 mM KCl, 2 mM CaCl2), 1 mM MgCl2, pH 7.4) containing 5 uM BCECF-AM (Invitrogen). Cells were washed twice with Ammonium free, Nat-free HEPES (100 mM choline, 50 mM HEPES, 10 mM glucose, 5 mM KCl, 2 mM CaCl2), 1 mM MgCl2, pH 7.4) and incubated in the same buffer for 10 minutes at room temperature to lower intracellular pH. […] Initial rates were plotted as the average 3-6 replicates, and pIC50 values were estimated using GraphPad Prism.

[2] abbreviates: OK cells expressing rat NHE-3, 0-30 uM test compound, 5 uM EIPA.

Each structure is given as a SMILES string. Read-outs that look alike come from different tables or passages of the source.

T1 sequence (P26433 29-831): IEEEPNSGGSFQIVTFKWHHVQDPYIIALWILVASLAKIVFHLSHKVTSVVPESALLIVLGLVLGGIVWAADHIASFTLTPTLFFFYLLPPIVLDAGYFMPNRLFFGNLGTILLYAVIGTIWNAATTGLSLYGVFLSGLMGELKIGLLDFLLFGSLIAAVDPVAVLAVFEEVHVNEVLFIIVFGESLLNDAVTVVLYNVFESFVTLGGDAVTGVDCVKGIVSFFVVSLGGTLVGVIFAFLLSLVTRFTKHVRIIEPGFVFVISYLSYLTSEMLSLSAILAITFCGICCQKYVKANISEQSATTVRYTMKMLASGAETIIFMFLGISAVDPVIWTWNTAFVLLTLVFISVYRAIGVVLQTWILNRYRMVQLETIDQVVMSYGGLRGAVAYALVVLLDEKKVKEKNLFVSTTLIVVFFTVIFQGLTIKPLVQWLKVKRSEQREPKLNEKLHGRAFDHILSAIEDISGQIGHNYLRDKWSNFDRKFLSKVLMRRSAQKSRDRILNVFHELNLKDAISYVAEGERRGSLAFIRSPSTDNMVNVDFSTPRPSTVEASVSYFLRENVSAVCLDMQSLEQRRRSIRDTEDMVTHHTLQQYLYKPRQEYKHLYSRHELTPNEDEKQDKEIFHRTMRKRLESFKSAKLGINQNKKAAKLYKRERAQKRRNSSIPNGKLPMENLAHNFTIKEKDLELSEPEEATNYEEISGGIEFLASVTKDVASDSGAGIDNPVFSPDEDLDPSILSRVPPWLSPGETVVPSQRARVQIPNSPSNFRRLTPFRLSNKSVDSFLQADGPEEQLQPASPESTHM

For orientation: AUC means concentration integrated over time. A low value points to low exposure. The Cmax is the highest concentration seen after dosing. In the case of `CN1Cc2c(Cl)cc(Cl)cc2C(c2cccc(S(=O)(=O)NCCOCCOCCOCCNC(=O)c3cc(C(=O)NCCOCCOCCOCCNS(=O)(=O)c4cccc(C5CN(C)Cc6c(Cl)cc(Cl)cc65)c4)cc(C(=O)NCCOCCOCCOCCNS(=O)(=O)c4cccc(C5CN(C)Cc6c(Cl)cc(Cl)cc65)c4)c3)c2)C1` (stereo not shown) [Example 215, N1,N3,N5-tris(2-(2-(2-(2-(3-(6,8-dichloro-2-methyl-1,2,3,4-tetrahydroisoquinolin-4-yl)phenylsulfonamido)ethoxy)ethoxy)ethoxy)ethyl)benzene-1,3,5-tricarboxamide], in data set [1], the AUC is below 2 ng·h/mL and the Cmax was below 2 ng/mL. Moreover, on rat NHE-3 (setting [2]), the “rat NHE-3 Average pIC50” value was above 7.

In data set [1], `C/C(=C\c1cc(F)c(Oc2ccc(S(=O)(=O)NCCOCCOCCOCCNC(=O)[C@H](O)[C@@H](O)C(=O)NCCOCCOCCOCCNS(=O)(=O)c3ccc(Oc4c(F)cc(/C=C(\C)C(=O)N=C(N)N)cc4F)cc3)cc2)c(F)c1)C(=O)N=C(N)N` [Example 212, (2R,3R)—N1,N4-bis(2-(2-(2-(2-(4-(4-((E)-3-(diaminomethyleneamino)-2-methyl-3-oxoprop-1-enyl)-2,6-difluorophenoxy)phenylsulfonamido)ethoxy)ethoxy)ethoxy)ethyl)-2,3-dihydroxysuccinamide] came in with an exposure (AUC) below 4.4 ng·h/mL and a Cmax below 2.7 ng/mL. Moreover, the IC50 on rat NHE-3 (setting [2]) was below 100 nM.

In data set [1], `CN1Cc2c(Cl)cc(Cl)cc2C(c2cccc(S(=O)(=O)NCCOCCOCCOCCNC(=O)c3ccccc3C(=O)NCCOCCOCCOCCNS(=O)(=O)c3cccc(C4CN(C)Cc5c(Cl)cc(Cl)cc54)c3)c2)C1` (stereo not shown) [Example 230, N1,N2-bis(2-(2-(2-(2-(3-(6,8-dichloro-2-methyl-1,2,3,4-tetrahydroisoquinolin-4-yl)phenylsulfonamido)ethoxy)ethoxy)ethoxy)-ethyl)phthalamide] gave an area under the curve (AUC) below 5 ng·h/mL and a Cmax below 5 ng/mL. Further, the “rat NHE-3 Average pIC50” value on rat NHE-3 is recorded as above 7.

In data set [1], `CN1Cc2c(Cl)cc(Cl)cc2C(c2cccc(S(=O)(=O)NCCOCCOCCOCCNC(=O)CN(CC(=O)NCCOCCOCCOCCNS(=O)(=O)c3cccc(C4CN(C)Cc5c(Cl)cc(Cl)cc54)c3)CC(=O)NCCOCCOCCOCCNS(=O)(=O)c3cccc(C4CN(C)Cc5c(Cl)cc(Cl)cc54)c3)c2)C1` (stereo not shown) [Example 213, 2,2′,2″-nitrilotris(N-(2-(2-(2-(2-(3-(6,8-dichloro-2-methyl-1,2,3,4-tetrahydroisoquinolin-4-yl)phenylsulfonamido)ethoxy)ethoxy)ethoxy)ethyl)acetamide)] gave an exposure (AUC) below 5 ng·h/mL and a Cmax below 5 ng/mL. For the same molecule, on rat NHE-3 (setting [2]), the “rat NHE-3 Average pIC50” value was 6 to 7.

In data set [1], `CN1Cc2c(Cl)cc(Cl)cc2C(c2cccc(S(=O)(=O)NCCOCCOCCOCCOCCOCCOCCOCCOCCOCCOCCNC(=O)CCOCCOCCOCCOCCOCCOCCOCCOCCOCCC(=O)NCCOCCOCCOCCOCCOCCOCCOCCOCCOCCOCCNS(=O)(=O)c3cccc(C4CN(C)Cc5c(Cl)cc(Cl)cc54)c3)c2)C1` (stereo not shown) [Example 217, N1,N31-bis(32-(3-(6,8-dichloro-2-methyl-1,2,3,4-tetrahydroisoquinolin-4-yl)phenylsulfonamido)-3,6,9,12,15,18,21,24,27,30-decaoxadotriacontyl)-4,7,10,13,16,19,22,25,28-nonaoxahentriacontane-1,31-diamide] gave an exposure (AUC) below 10 ng·h/mL and a Cmax below 10 ng/mL. The “rat NHE-3 Average pIC50” value at rat NHE-3 (setting [2]) fell in the range of 6 to 7.

Regarding `CN1Cc2c(Cl)cc(Cl)cc2C(c2cccc(S(=O)(=O)NCCOCCOCCOCCNC(=O)NCCCCNC(=O)NCCOCCOCCOCCNS(=O)(=O)c3cccc(C4CN(C)Cc5c(Cl)cc(Cl)cc54)c3)c2)C1` (stereo not shown) [Example 208, N,N′-(13,20-dioxo-3,6,9,24,27,30-hexaoxa-12,14,19,21-tetraazadotriacontane-1,32-diyl)bis(3-(6,8-dichloro-2-methyl-1,2,3,4-tetrahydroisoquinolin-4-yl)benzenesulfonamide)], in data set [1], the AUC is below 5 ng·h/mL and the highest concentration (Cmax) is below 5 ng/mL. Also, the “rat NHE-3 Average pIC50” value at rat NHE-3 (setting [2]) is given as above 7.

In data set [1], `CN1Cc2c(Cl)cc(Cl)cc2[C@H](c2ccc(S(=O)(=O)NCCOCCOCCOCCNC(=O)C(O)C(O)C(=O)NCCOCCOCCOCCNS(=O)(=O)c3ccc([C@@H]4CN(C)Cc5c(Cl)cc(Cl)cc54)cc3)cc2)C1` (single isomer, unassigned) [Example 225, N1,N4-bis(2-(2-(2-(2-(4-((S or R)-6,8-dichloro-2-methyl-1,2,3,4-tetrahydroisoquinolin-4-yl)phenylsulfonamido)ethoxy)ethoxy)ethoxy)ethyl)-2,3-dihydroxysuccinamide] displayed an AUC below 5.3 ng·h/mL and a maximum concentration (Cmax) below 3.5 ng/mL. On rat NHE-3 (setting [2]), the IC50 is 100 to 1000 nM.

On to `CN1Cc2c(Cl)cc(Cl)cc2C(c2ccc(S(=O)(=O)NCCOCCOCCOCCNC(=O)c3ccc(C(=O)NCCOCCOCCOCCNS(=O)(=O)c4ccc(C5CN(C)Cc6c(Cl)cc(Cl)cc65)cc4)cc3)cc2)C1` (stereo not shown) [Example 233, N1,N4-bis(2-(2-(2-(2-(4-(6,8-dichloro-2-methyl-1,2,3,4-tetrahydroisoquinolin-4-yl)phenylsulfonamido)ethoxy)ethoxy)ethoxy)ethyl)terephthalamide], for which, in data set [1], the AUC is below 6.8 ng·h/mL and the peak concentration (Cmax) is below 2.6 ng/mL. The “rat NHE-3 Average pIC50” value at rat NHE-3 was below 5.0.

For the molecule `CN1Cc2c(Cl)cc(Cl)cc2C(c2ccc(S(=O)(=O)NCCOCCOCCNC(=O)NCCOCCOCCNS(=O)(=O)c3ccc(C4CN(C)Cc5c(Cl)cc(Cl)cc54)cc3)cc2)C1` (stereo not shown) [Example 232, N,N′-(10-oxo-3,6,14,17-tetraoxa-9,11-diazanonadecane-1,19-diyl)bis(4-(6,8-dichloro-2-methyl-1,2,3,4-tetrahydroisoquinolin-4-yl)benzenesulfonamide)], in data set [1], the exposure (AUC) is below 2 ng·h/mL and the Cmax is below 2 ng/mL. Further, the “rat NHE-3 Average pIC50” value on rat NHE-3 is on record as below 5.0.

In data set [1], `CN1Cc2c(Cl)cc(Cl)cc2C(c2ccc(S(=O)(=O)NCC(=O)NCC(=O)NCC(=O)NCCCCNC(=O)CNC(=O)CNC(=O)CNS(=O)(=O)c3ccc(C4CN(C)Cc5c(Cl)cc(Cl)cc54)cc3)cc2)C1` (stereo not shown) [Example 204, N,N′-(butane-1,4-diyl)bis(2-(2-(2-(4-(6,8-dichloro-2-methyl-1,2,3,4-tetrahydroisoquinolin-4-yl)phenylsulfonamido)acetamido)acetamido)acetamide)] came in with an area under the curve (AUC) below 2 ng·h/mL and a peak concentration (Cmax) below 2 ng/mL. The “rat NHE-3 Average pIC50” value at rat NHE-3 (setting [2]) was above 7.

For `C/C(=C\c1cc(F)c(Oc2ccc(S(=O)(=O)NCCOCCOCCOCCOCCOCCOCCN)cc2)c(F)c1)C(=O)N=C(N)N` [Example 211, (E)-3-(4-(4-(N-(20-amino-3,6,9,12,15,18-hexaoxaicosyl)sulfamoyl)phenoxy)-3,5-difluorophenyl)-N-(diaminomethylene)-2-methylacrylamide], in data set [1], the area under the curve (AUC) is below 3 ng·h/mL and the peak concentration (Cmax) is below 2.3 ng/mL. In addition, the “rat NHE-3 Average pIC50” value on rat NHE-3 (setting [2]) is listed as 6 to 7.

For `CN1Cc2c(Cl)cc(Cl)cc2C(c2ccc(S(=O)(=O)NCCOCCOCCOCCNC(=O)CCOCCOCCOCCOCCOCCOCCOCCOCCOCCC(=O)NCCOCCOCCOCCNS(=O)(=O)c3ccc(C4CN(C)Cc5c(Cl)cc(Cl)cc54)cc3)cc2)C1` (stereo not shown) [Example 98, N1,N31-bis(2-(2-(2-(2-(4-(6,8-dichloro-2-methyl-1,2,3,4-tetrahydroisoquinolin-4-yl)phenylsulfonamido)ethoxy)ethoxy)ethoxy)ethyl)-4,7,10,13,16,19,22,25,28-nonaoxahentriacontane-1,31-diamide], on rat NHE-3 (setting [2]), the “rat NHE-3 Average pIC50” value was above 7.

In the case of `C/C(=C\c1cc(F)c(Oc2ccc(S(=O)(=O)NCCOCCOCCOCCN)cc2)c(F)c1)C(=O)N=C(N)N` [Example 45, (E)-3-(4-(4-(N-(2-(2-(2-(2-aminoethoxy)ethoxy)ethoxy)ethyl)sulfamoyl)phenoxy)-3,5-difluorophenyl)-N-(diaminomethylene)-2-methylacrylamide], on rat NHE-3 (setting [2]), the “rat NHE-3 Average pIC50” value was 6 to 7.

For `CN1Cc2c(Cl)cc(Cl)cc2C(c2cccc(S(=O)(=O)NCCOCCOCCNC(=O)C(C)(C)C(=O)NCCOCCOCCNS(=O)(=O)c3cccc(C4CN(C)Cc5c(Cl)cc(Cl)cc54)c3)c2)C1` (stereo not shown) [Example 196, N1,N3-bis(2-(2-(2-(3-(6,8-dichloro-2-methyl-1,2,3,4-tetrahydroisoquinolin-4-yl)phenylsulfonamido)ethoxy)ethoxy)ethyl)-2,2-dimethylmalonamide], the “rat NHE-3 Average pIC50” value at rat NHE-3 (setting [2]) is reported as 5 to 6.

With `CN1Cc2c(Cl)cc(Cl)cc2C(c2ccc(S(=O)(=O)NCCOCCOCCNC(=O)C(=O)NCCOCCOCCNS(=O)(=O)c3ccc(C4CN(C)Cc5c(Cl)cc(Cl)cc54)cc3)cc2)C1` (stereo not shown) [Example 175, N1,N2-bis(2-(2-(2-(4-(6,8-dichloro-2-methyl-1,2,3,4-tetrahydroisoquinolin-4-yl)phenylsulfonamido)ethoxy)ethoxy)ethyl)oxalamide], the “rat NHE-3 Average pIC50” value at rat NHE-3 (setting [2]) is below 5.0.
